Measurements: patent publication US20140341922A1, “Method for Overcoming Tolerance to Targeted Anti-Cancer Agent” (SUN R&DB Foundation, priority 2011, published 2014)

How the values were obtained:
[1] = system: HNSCC and NSCLC cells; test: Soft agar colony formation assay; type: cell-based, human
Description: To evaluate the effect on anchorage-independent colony formation, cells were suspended in 0.4% agar in media at a density of 2×10^3 cells per well, replated in 12-well plates that have been pre-coated with 0.8% agar, and cultured in growth medium containing cixutumumab (25 μg/ml) for 2-6 weeks. Cells were stained with 0.1% Coomassie brilliant blue in PBS, and the colonies >0.2 mm in diameter were counted. Independent experiments were repeated three times.
Because cells grown in the 3D environment might differ from cells growing in PCPs and UAPs, the present inventor evaluated the effects of cixutumumab on cell growth in soft agar, a 3D culture system. 10 HNSCC and 6 NSCLC cells were cultured in soft agar for 4 to 6 weeks in the presence or absence of cixutumumab (25 μg/ml).

[2] = system: LN686, H226B, UMSCC38 and A549m xenograft tumors; test: Xenograft tumors of drug-resistant and -sensitive cells in nude mice; type: in vivo; conditions: intraperitoneal, 25 mg/kg twice a week
Description: LN686, UMSCC38, H226B, or A549m cells (1×10^6 cells/mouse in 100 μl of PBS) were subcutaneously injected into nude mice at a single dorsal flank site (6-9 mice per group). For HNSCC patient-derived tumor xenografts, primary human tumor specimens were collected from an untreated patient who underwent lobectomies of squamous carcinoma of the oral cavity. The tumors were cut into small pieces with a size of 2-mm^3 and subcutaneously implanted into the nude mice (one piece per mouse). At 0 day (the time point when tumor size reached to 80 to 100 mm^3) mice were treated with cixutumumab (10 mg/kg, i.p., once or twice a week), Ad-EV (3×10^11 pfu, intratumoral injection, once a week), Ad-CSK (3×10^11 pfu, intratumoral injection, once a week), siCon, siintegrin β3 ([…], i.p., once a week), dasatinib (20 mg/kg, oral gavage, daily), cixutumumab and Ad-CSK, or cixutumumab and dasatinib.
Tumor xenografts were treated with vehicle or cituxumumab (intraperitoneal, 25 mg/kg) twice a week. Data are presented as mean tumor volume ±SD for indicated time or mean tumor weight at the date of euthanasia ±SD (*P<0.05, **P<0.01, ***P<0.001). […] Thus, antitumor activity of cixutumumab was consistent in cells grown in 3D (or 3D-mimicking) conditions in vitro and in those grown in vivo.

[3] = system: IGF-1R, EGFR, Src, Akt, mTOR phosphorylation; test: Western blot of IGF-1R, EGFR, Src, Akt signaling after cixutumumab; type: cell-based, human
Description: Preparation of total cell lysates, Western blot analysis, and immunoprecipitation were performed according to methods described in our previous report (Morgillo et al., 2006).
(§1) Total cell lysates were immunoprecipitated with antibodies against integrin β3, integrin β1, or IgG. The precipitates with protein A agarose were resolved by sodium dodecyl sulfate-polyacrylamide gel electrophoresis (SDS-PAGE) and transferred to a polyvinylidene difluoride (PVDF) membrane. Western blot analysis was performed using specific Abs described as follows, and antigen-antibody complexes were visualized using enhanced chemiluminescence plus kits (Amersham Biosciences, Piscataway, N.J.).
The present inventors investigated the mechanisms involved in the resistance to cixutumumab treatment in HNSCC and NSCLC cells. cixutumumab resistant (LN686, FADU, 226B, 226Br, H596, and H460) or -sensitivity (UMSCC38, OSC19, H1299, and A549m) lines grown in TCP, PCP, UAP, or soft agar were untreated or treated with 25 μg/ml of cixutumumab for 6 h, and then were stimulated with IGF-1 for 30 min. Expression of several proteins were analyzed by Western blot analysis.
Cixutumumab-resistant (LN686, FADU, 226B, 226Br, H596, and H460) or -sensitive (UMSCC38, OSC19, H1299, and A549m) cell lines grown in PCP were untreated or treated with 25 μg/ml of cixutumumab for 7 days, and then were stimulated with 10% FBS for 30 min. Expression of several proteins were analyzed by western blot analysis.
Because cross-talk between EGFR and IGF-1R signalings have been proposed as a major mechanism of a resistance to TKIs of IGF-1R and EGFR (Buck et al., 2008; Morgillo et al., 2006), the present inventors next examined whether cixutumumab treatment induces activation of EGFR and Akt phosphorylation. After cixutumumab-resistant (LN686, FADU, 226B, 226Br, H596, and H460) or -sensitive (UMSCC38, OSC19, H1299, and A549m) cell lines grown in PCPs were treated with cixutumumab, 10% FBS was treated for 30 min. Several phosphorylated proteins and actin were analyzed by western blot analysis. In addition, densitometric analysis was performed to quantify the expression of the proteins for comparisons between cixutumumab-treated and control cells treated with vehicle.
(§2) The LN686 cells grown in PCP were treated with cixutumumab (25 μg/ml) for indicated times prior to stimulation with 10% FBS (FIGS. 14 and 15) or IGF-1 (100 ng/ml) (FIGS. 16 and 17) in the presence or absence of anti-human IGF-1 neutralizing monoclonal antibody (αIGF-1) (FIGS. 15 and 16) for indicated times (FIG. 16) or for 30 min (FIGS. 14, 15, and 17). Immunoprecipitation with whole proteins or integrin β3 antibodies was performed on the presented proteins, and expression of the proteins was analyzed by western blot analysis.
In addition, LN686 cells grown in PCP were treated with cixutumumab (25 μg/ml) for 7 days in the absence of FBS. The results obtained by analyzing p-IGF-1R (Y1131), IGF-1R, p-Src (Y416), Src, p-EGFR (Y845), p-EGFR (Y1068), EGFR, p-Akt (S473), and Akt using western blot analysis. LN686 cells stimulated with 10% serum for 30 min were included as a control.

[4] = system: integrin β3; test: Immunoprecipitation of integrin β3 / β1 with Src, FAK, p85; type: cell-based, human
Description: as §1, §2

“cixutumumab: humanized mAb targeting IGF-1R, provided by ImClone Systems” was tested, and the “colony formation in soft agar” value ([1]; OSC19 and A549 cells, 3D system) was “concentration-dependent inhibitory effects”, the “colonies formed in soft agar” value ([1]; sensitive NSCLC and HNSCC lines vs resistant and mildly sensitive lines, 25 μg/ml, 4 to 6 weeks) was “significantly fewer colonies” and the “growth and weight of xenograft tumors” value ([2]; LN686 and H226B xenografts) was “no significant effects”. The “growth and weight of xenograft tumors” value ([2]; UMSCC38 and A549 xenografts) was “significantly decreased”, the “IGF-1-induced IGF-1R and Akt phosphorylation, and total IGF-1R expression” value ([3]; 25 μg/mL for 6 h, LN686 and OSC19 cells in TCPs, PCPs, UAPs, soft agar) was “effectively suppressed” and the “phosphorylation of Akt and downstream effectors mTOR, p70S6K, S6” value ([3]; LN686 (cixutumumab-resistant)) was “not to inhibit or to even increase”. The “time IGF-1R remained dephosphorylated” value ([3]; LN686 in PCP, 25 μg/ml, no change in IGF-1R level) was 3 h, the “levels of p-IGF-1R, p-EGFR (Y845), p-Src (Y416), and p-Akt (S473)” value ([3]; LN686 in PCP, 30 min pretreatment, 10% FBS stimulation) was “decreased” and the “phosphorylation of Src, FAK, EGFR (Y845), Akt, mTOR” value ([3]; LN686 in PCP, one hour treatment, 10% FBS stimulation) was “rapidly rephosphorylated”. For the same substance, the “phosphorylation of Akt and downstream effectors mTOR, p70S6K, S6” value ([3]; OSC19 (cixutumumab-sensitive)) was “inhibited”, the “EGFR, Src, or Akt phosphorylation” value ([3]; cixutumumab alone, absence of IGF-1 stimulation, LN686) was “failed to induce” and the “phosphorylation of EGFR at Src-specific site (Y845) and of Src (Y416)” value ([3]; cixutumumab-resistant lines in PCPs, 7 days, 10% FBS 30 min) was “increased”. For the same substance, the “phosphorylation of EGFR at Tyr1068” value ([3]; drug-resistant lines in PCPs, 7 days, 10% FBS 30 min) was “increased”, the “FBS-induced associations between integrin β3 and Src or p85 and phosphorylation of FAK and Src” value ([4]; LN686 in PCP, 25 μg/ml, time-dependent) was “enhanced” and the “associations between integrin β1 and p-Src (Y416) or p-FAK (Y861)” value ([4]; after IGF-1 stimulation, cixutumumab pretreatment) was “did not affect”.
